From patent US5691366A, “Nitro compounds, process for preparation thereof and use thereof” (Fujisawa Pharmaceutical Co., Ltd., priority 1991, dated 1997)

Assays:
[1] = test system: Mean Arterial Blood Pressure in Conscious Rats; assay: Effect on mean arterial blood pressure in conscious rats (oral); assay type: in vivo, rat (male Sprague-Dawley); conditions: for Hypotensive effect Dur.: time to recover to 5% of maximal decrease; for Hypotensive effect T 1/2: time to recover to half of maximal decrease; for inhibition in vivo at 10 mg/kg / inhibition in vivo at 32 mg/kg: Rattus norvegicus, po, maximal % decrease of mean blood pressure, read-out: Hypotensive effect R max
Method: Male Sprague-Dawley rats, aged 9-11 weeks, were anesthetized with ether and a polyethylene cannula filled with heparin solution was inserted into the femoral artery of the rats to measure mean blood pressure. Mean blood pressure was measured with a pressure transducer and recorded on a polygraph. Two hours after operation, the drug suspended in 0.5% methyl cellulose was administered orally in a volume of 5 ml/kg. Oral hypotensive effects of each compound were expressed as the maximal decrease (R max), the half time (T 1/2) and the duration (Dur.). Briefly, R max was expressed as maximal % change compared to mean blood pressure prior to the administration of compound. T 1/2 was expressed as a time during which the hypotensive effect recovered to half of the maximal decrease. Duration was expressed as a time during which the hypotensive effect recovered to 5% of the maximal decrease.

[2] = test system: Mean Arterial Blood Pressure in Anesthetized Rats; assay: Effect on mean arterial blood pressure in anesthetized rats (intravenous); assay type: in vivo, rat (male Sprague-Dawley); conditions: for Hypotensive effect T 1/2: i.v., time to recover to half of maximal decrease
Method: Male Sprague-Dawley rats, aged 9-12 weeks, were anesthetized with urethane (1.4 g/kg i.p.). A polyethylene cannula filled with heparin solution was inserted into the femoral artery of the rats to measure mean blood pressure. Mean blood pressure was measured with a pressure transducer and recorded on a polygraph. The test compound dissolved in ethanol, polyethylene glycol and distilled water (1:1:2), were administered intraveneously in a volume of 0.25 ml/kg. Intravenous hypothypotensive effects of each compound were expressed as the maximal decrease (R max) and the half time (T 1/2). Briefly, R max was expressed as maximal % change compared to mean blood pressure prior to the administration of compound. T 1/2 was expressed as a time during which the hypotensive effect recovered to half of the maximal decrease.

[3] = Rattus norvegicus, iv, 0.32 mg/kg, maximal % decrease of mean blood pressure, read-out: Hypotensive effect R max
[4] = Rattus norvegicus, iv, 1.0 mg/kg, maximal % decrease of mean blood pressure, read-out: Hypotensive effect R max

Row | Compound | Hypotensive effect Dur. ([1]; 10 mg/kg) [min] | Hypotensive effect T 1/2 ([1]; 10 mg/kg) [min] | Hypotensive effect Dur. ([1]; 32 mg/kg) [min] | Hypotensive effect T 1/2 ([1]; 32 mg/kg) [min] | inhibition in vivo at 10 mg/kg ([1]; 10 mg/kg) [%] | inhibition in vivo at 32 mg/kg ([1]; 32 mg/kg) [%] | inhibition in vivo at 0.32 mg/kg [2, 3] [%] | inhibition in vivo at 1 mg/kg [2, 4] [%] | Hypotensive effect T 1/2 ([2]; 1.0 mg/kg) [min] | Hypotensive effect T 1/2 ([2]; 0.32 mg/kg) [min] | inhibition in vivo at 3.2 mg/kg ([2]; Rattus norvegicus, iv, 3.2 mg/kg, maximal % decrease of mean blood pressure, read-out: Hypotensive effect R max) [%] | Hypotensive effect T 1/2 ([2]; 3.2 mg/kg) [min]
1 | CCC(C(C)=CC(CNC(=O)c1cccnc1)=NO)[N+](=O)[O-] (single isomer, unassigned) [Example 18 A, N-(2-hydroxyimino-4-methyl-5-nitro-3-hepten-1-yl)-3-pyridinecarboxamide] | 57.0 | 40.1 | 156.4 | 88.7 | 25.7 | 46.9 | 10.2 | 33.6 | 31.5 | – | – | –
2 | CCC(C(C)=CC(CNC(=O)c1cccnc1)=NO)[N+](=O)[O-] (single isomer, unassigned) [Example 18 B, N-(2-hydroxyimino-4-methyl-5-nitro-3-hepten-1-yl)-3-pyridinecarboxamide] | 54.7 | 26.4 | 97.2 | 56.1 | – | – | – | – | 20.2 | – | – | –
3 | CC(=CC(CNC(=O)c1cccnc1)=NO)C(C)[N+](=O)[O-] (single isomer, unassigned) [Example 19 A, N-(2-Hydroxyimino-4-methyl-5-nitro-3-hexen-1-yl)-3-pyridinecarboxamide] | – | – | – | – | – | – | 40.3 | – | – | 12.6 | – | –
4 | CC(=CC(CNC(=O)c1cccnc1)=NO)C(C)[N+](=O)[O-] (single isomer, unassigned) [Example 19 B, N-(2-Hydroxyimino-4-methyl-5-nitro-3-hexen-1-yl)-3-pyridinecarboxamide] | – | – | – | – | – | – | – | – | – | 11.0 | – | –
5 | CCC(=CC(CNC(=O)c1cccnc1)=NO)C(CC)[N+](=O)[O-] (single isomer, unassigned) [Example 25 A, N-(4-Ethyl-2-hydroxyimino-5-nitro-3-hepten-1-yl)-3-pyridinecarboxamide] | – | 22.5 | – | 56.7 | – | 26 | 24.1 | – | – | 13.1 | – | –
6 | CCC(=CC(CNC(=O)c1cccnc1)=NO)C(CC)[N+](=O)[O-] (single isomer, unassigned) [Example 25 B, N-(4-Ethyl-2-hydroxyimino-5-nitro-3-hepten-1-yl)-3-pyridinecarboxamide] | – | 14.6 | – | – | – | – | – | – | – | – | – | –
7 | CCC(=CC(CNC(=O)c1cccnc1C)=NO)C(C)[N+](=O)[O-] (single isomer, unassigned) [Example 30 A, N-(4-Ethyl-2-hydroxyimino-5-nitro-3-hexen-1-yl)-2-methyl-3-pyridinecarboxamide] | 108.0 | 36.0 | 211.1 | 56.2 | 40.6 | 39.3 | 37.9 | – | – | 16.9 | – | –
8 | CCC(=CC(CNC(=O)c1cccnc1C)=NO)C(C)[N+](=O)[O-] (single isomer, unassigned) [Example 30 B, N-(4-Ethyl-2-hydroxyimino-5-nitro-3-hexen-1-yl)-2-methyl-3-pyridinecarboxamide] | – | 20.9 | – | – | – | – | – | – | – | 13.0 | – | –
9 | CCC(=CC(CNC(=O)c1cccnc1SC)=NO)C(C)[N+](=O)[O-] (single isomer, unassigned) [Example 31 A, N-(4-Ethyl-2-hydroxyimino-5-nitro-3-hexen-1-yl)-2-methylthio-3-pyridinecarboxamide] | – | 10.4 | – | – | 14.9 | – | 24.3 | – | – | – | – | –
10 | CCC(=CC(CNC(=O)c1cccnc1O)=NO)C(C)[N+](=O)[O-] (single isomer, unassigned) [Example 33 A, N-(4-Ethyl-2-hydroxyimino-5-nitro-3-hexen-1-yl)-2-hydroxy-3-pyridinecarboxamide] | – | 18.3 | – | – | 23.1 | – | 20.9 | – | – | 11.9 | – | –
11 | CCC(=CC(CNC(=O)c1nc[nH]c1C)=NO)C(C)[N+](=O)[O-] (single isomer, unassigned) [Example 45 A, N-(4-Ethyl-2-hydroxyimino-5-nitro-3-hexen-1-yl)-5-methy-4-imidazolecarboxamide] | 52.3 | 26.6 | – | – | 35.4 | – | 31.2 | – | – | 11.9 | – | –
12 | CC(C)C(=CC(CNC(=O)c1cccnc1)=NO)C(C)[N+](=O)[O-] (stereo not drawn) [Example 20, N-(2-Hydroxyimino-4-isopropyl-5-nitro-3-hexen-1-yl)-3-pyridinecarboxamide] | – | 28.5 | – | – | 20.1 | – | 3.8 | – | – | – | 48.4 | 20.1
13 | O=C(NCC(C=C1CCCCC1[N+](=O)[O-])=NO)c1cccnc1 (stereo not drawn) [Example 21, N-[2-Hydroxyimino-3-(2-nitrocyclohexylidene)propyl]-3-pyridinecarboxamide] | 67.7 | 34.1 | > 300 | 88.1 | 34.3 | 34.3 | 26.5 | – | – | 13.1 | – | –
14 | COCC(C(C)=CC(CNC(=O)c1ccncc1)=NO)[N+](=O)[O-] (stereo not drawn) [Example 22, N-(2-Hydroxyimino-6-methoxy-4-methyl-5-nitro-3-hexen-1-yl)-4-pyridinecarboxamide] | – | 29.9 | – | 63.2 | 19.2 | 25.7 | 17.7 | 35.9 | 24.9 | – | – | –
15 | CCC(=CC(CNC(C)=O)=NO)C(CC)[N+](=O)[O-] (stereo not drawn) [Example 24, 1Acetylamino-4-ethyl-2-hydroxyimino-5-nitro-3-heptene] | – | 16.6 | – | – | 40.7 | – | 31.8 | – | – | 13.6 | – | –
16 | CCC(=CC(CNC(=O)c1cnccc1C(N)=O)=NO)C(C)[N+](=O)[O-] (stereo not drawn) [Example 28, 3-[N-(4-Ethyl-2-hydroxyimino-5-nitro-3-hexen-1-yl)-carbamoyl]-4-pyridinecarboxamide] | – | – | – | – | – | – | 22.2 | 31.4 | 11.9 | – | – | –
17 | CCC(=CC(CNC(=O)c1ccncc1)=NO)C(C)[N+](=O)[O-] (stereo not drawn) [Example 29, N-(4-Ethyl-2-hydroxyimino-5-nitro-3-hexen-1-yl)-4-pyridinecarboxamide] | 72.5 | 23.5 | > 300 | 165 | 31.4 | 37.1 | 35 | – | – | 12.3 | – | –
18 | CCC(=CC(CNC(=O)c1cccnc1Cl)=NO)C(C)[N+](=O)[O-] (stereo not drawn) [Example 32, N-(4-Ethyl-2-hydroxyimino-5-nitro-3-hexen-1-yl)-2-chloro-3-pyridinecarboxamide] | 50.9 | 19.6 | – | – | 43.2 | – | 42.5 | – | – | 13.6 | – | –
19 | CCC(=CC(CNC(=O)C(N)=O)=NO)C(C)[N+](=O)[O-] (stereo not drawn) [Example 40 A] | 71.1 | 25.2 | – | – | 47.8 | – | – | – | – | – | – | –
20 | CCC(=CC(CNC(=O)C(N)=O)=NO)C(C)[N+](=O)[O-] (stereo not drawn) [Example 40] | – | – | – | – | – | – | 52.3 | – | – | 11.3 | – | –
21 | CCC(=CC(CNC(=O)Cc1cccnc1)=NO)C(C)[N+](=O)[O-] (stereo not drawn) [Example 42, N-(4-Ethyl-2-hydroxyimino-5-nitro-3-hexen-1-yl)-3-pyridylacetamide] | – | – | – | – | – | – | 44.4 | – | – | 14.2 | – | –
22 | CCC(=CC(CNC(=O)c1sc(C)nc1C)=NO)C(C)[N+](=O)[O-] (stereo not drawn) [Example 43, N-(4-Ethyl-2-hydroxyimino-5-nitro-3-hexen-1-yl)-2,4-dimethylthiazole-5-carboxamide] | – | – | – | – | – | – | 53.1 | – | – | – | – | –
